{"source": "patent US11591355B2", "about": "(Peloton Therapeutics, Inc., priority 2017, dated 2023)", "key": {"[1]": {"target": "T1, CD73 on U138 human neuroglioma cells (Homo sapiens, UniProt P21589)", "T1 construct": "U138 cells were obtained from ATCC and cultured in DMEM with 10% FBS; host or cells: U138 human neuroglioma cells", "T1 sequence (P21589 27-549)": "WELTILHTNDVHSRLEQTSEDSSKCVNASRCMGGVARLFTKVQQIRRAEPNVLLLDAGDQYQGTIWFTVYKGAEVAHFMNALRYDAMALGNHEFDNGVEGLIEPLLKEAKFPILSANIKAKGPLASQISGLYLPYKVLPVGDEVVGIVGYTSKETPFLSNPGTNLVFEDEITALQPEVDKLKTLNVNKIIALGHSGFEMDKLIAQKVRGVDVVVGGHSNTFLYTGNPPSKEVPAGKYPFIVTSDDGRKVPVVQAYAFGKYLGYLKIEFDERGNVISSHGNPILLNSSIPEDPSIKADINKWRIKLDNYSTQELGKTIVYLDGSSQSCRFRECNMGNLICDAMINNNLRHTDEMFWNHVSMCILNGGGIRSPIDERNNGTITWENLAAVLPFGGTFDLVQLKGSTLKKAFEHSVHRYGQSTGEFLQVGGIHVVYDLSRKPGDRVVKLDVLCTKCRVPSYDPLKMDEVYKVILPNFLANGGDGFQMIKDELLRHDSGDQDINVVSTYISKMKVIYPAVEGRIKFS", "experiment": "CD73 Cell-Based Assay", "conditions": "U138 cells, AMP substrate, 2 hours at 37° C., inorganic phosphate by malachite green", "method_in_brief": "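Whole U138 cells washed free of phosphate were incubated with 200 μM AMP (mixture concentration before equal-volume addition) plus compound in HEPES-buffered saline, pH 7.4, for 2 h at 37 °C, 5% CO2. Adenosine-forming activity read as inorganic phosphate released into supernatant by malachite green.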"}, "[2]": {"target": "T2, Human CD73 (Homo sapiens, UniProt P21589)", "T2 construct": "purchased R&D Systems; host or cells: CHO cells", "T2 sequence (P21589 27-549)": "T1 sequence (P21589 27-549)", "experiment": "CD73 Enzyme Assay", "type": "biochemical", "conditions": "0.25 nM hCD73, 25 μM AMP, kinetic read at 360 nm; read-out: CD73 Enzyme Assay IC50"}}}
{"smiles": "O=P(O)(O)COC[C@H]1O[C@@H](n2ccc3c(NC4CCC(F)(F)CC4)nc(Cl)nc32)[C@H](O)[C@@H]1O", "note": "[Compound 121, [(2R,3S,4R,5R)-5-[2-chloro-4-[(4,4-difluorocyclohexyl)-amino]pyrrolo[2,3-d]-pyrimidin-7-yl]-3,4-dihydroxy-tetrahydro-furan-2-yl]methoxy-methylphosphonic acid]", "values": [{"measurement": "IC50", "setting": "[1]", "value": "< 10", "unit": "nM"}, {"measurement": "IC50", "setting": "[2]", "value": "10 to 100", "unit": "nM"}]}
{"smiles": "N#Cc1nc(N2CCC2)c2ccn([C@@H]3O[C@H](COCP(=O)(O)O)[C@@H](O)[C@H]3O)c2n1", "note": "[Compound 122, [(2R,3S,4R,5R)-5-[4-(azetidin-1-yl)-2-cyano-pyrrolo[2,3-d]-pyrimidin-7-yl]-3,4-dihydroxy-tetrahydro-furan-2-yl]methoxy-methylphosphonic acid]", "values": [{"measurement": "IC50", "setting": "[1]", "value": "10 to 100", "unit": "nM"}, {"measurement": "IC50", "setting": "[2]", "value": "10 to 100", "unit": "nM"}]}
{"smiles": "O=P(O)(O)COC[C@H]1O[C@@H](n2ccc3c(N4CCC(F)(F)C4)nc(Cl)nc32)[C@H](O)[C@@H]1O", "note": "[Compound 123, [(2R,3S,4R,5R)-5-[2-chloro-4-(3,3-difluoro-pyrrolidin-1-yl)pyrrolo-[2,3-d]pyrimidin-7-yl]-3,4-dihydroxy-tetrahydrofuran-2-yl]-methoxymethylphos-phonic acid]", "values": [{"measurement": "IC50", "setting": "[1]", "value": "< 10", "unit": "nM"}, {"measurement": "IC50", "setting": "[2]", "value": "< 10", "unit": "nM"}]}
{"smiles": "C[C@H](c1ccccc1)N(C)c1nc(Cl)nc2c1ccn2[C@@H]1O[C@H](COCP(=O)(O)O)[C@@H](O)[C@H]1O", "note": "[Compound 124, [(2R,3S,4R,5R)-5-[2-chloro-4-[methyl-[(1R)-1-phenylethyl]-amino]pyrrolo[2,3-d]-pyrimidin-7-yl]-3,4-dihydroxy-tetrahydro-furan-2-yl]methoxy-methylphosphonic acid]", "values": [{"measurement": "IC50", "setting": "[1]", "value": "< 10", "unit": "nM"}, {"measurement": "IC50", "setting": "[2]", "value": "< 10", "unit": "nM"}]}
{"smiles": "N#Cc1nc(N2CCC(F)(F)C2)c2ccn([C@@H]3O[C@H](COCP(=O)(O)O)[C@@H](O)[C@H]3O)c2n1", "note": "[Compound 125, [(2R,3S,4R,5R)-5-[2-cyano-4-(3,3-difluoropyrrolidin-1-yl)-pyrrolo[2,3-d]-pyrimidin-7-yl]-3,4-dihydroxy-tetrahydro-furan-2-yl]methoxy-methylphosphonic acid]", "values": [{"measurement": "IC50", "setting": "[1]", "value": "< 10", "unit": "nM"}, {"measurement": "IC50", "setting": "[2]", "value": "< 10", "unit": "nM"}]}
{"smiles": "O=P(O)(O)COC[C@H]1O[C@@H](n2ccc3c(N4CCCCC4)nc(Cl)nc32)[C@H](O)[C@@H]1O", "note": "[Compound 126, [(2R,3S,4R,5R)-5-[2-chloro-4-(1-piperidyl)-pyrrolo[2,3-d]-pyrimidin-7-yl]-3,4-dihydroxy-tetrahydro-furan-2-yl]methoxy-methylphosphonic acid]", "values": [{"measurement": "IC50", "setting": "[1]", "value": "< 10", "unit": "nM"}, {"measurement": "IC50", "setting": "[2]", "value": "10 to 100", "unit": "nM"}]}
{"smiles": "N#Cc1nc(N2CCOCC2)c2ccn([C@@H]3O[C@H](COCP(=O)(O)O)[C@@H](O)[C@H]3O)c2n1", "note": "[Compound 127, [(2R,3S,4R,5R)-5-(2-cyano-4-morpholino-pyrrolo[2,3-d]-pyrimidin-7-yl)-3,4-dihydroxy-tetrahydro-furan-2-yl]methoxy-methylphosphonic acid]", "values": [{"measurement": "IC50", "setting": "[1]", "value": "10 to 100", "unit": "nM"}, {"measurement": "IC50", "setting": "[2]", "value": "10 to 100", "unit": "nM"}]}
{"smiles": "O=P(O)(O)COC[C@H]1O[C@@H](n2ccc3c(N4CCC(F)(F)CC4)nc(Cl)nc32)[C@H](O)[C@@H]1O", "note": "[Compound 128, [(2R,3S,4R,5R)-5-[2-chloro-4-(4,4-difluoro-1-piperidyl)pyrrolo-[2,3-d]pyrimidin-7-yl]-3,4-dihydroxy-tetrahydrofuran-2-yl]-methoxymethylphos-phonic acid]", "values": [{"measurement": "IC50", "setting": "[1]", "value": "10 to 100", "unit": "nM"}, {"measurement": "IC50", "setting": "[2]", "value": "10 to 100", "unit": "nM"}]}
{"smiles": "N#Cc1nc(N2CCC(F)(F)CC2)c2ccn([C@@H]3O[C@H](COCP(=O)(O)O)[C@@H](O)[C@H]3O)c2n1", "note": "[Compound 129, [(2R,3S,4R,5R)-5-[2-cyano-4-(4,4-difluoro-1-piperidyl)pyrrolo-[2,3-d]pyrimidin-7-yl]-3,4-dihydroxy-tetrahydrofuran-2-yl]-methoxymethylphos-phonic acid]", "values": [{"measurement": "IC50", "setting": "[1]", "value": "10 to 100", "unit": "nM"}, {"measurement": "IC50", "setting": "[2]", "value": "10 to 100", "unit": "nM"}]}
{"smiles": "C[C@@H](Nc1nc(Cl)nc2c1c(F)cn2[C@@H]1O[C@H](COCP(=O)(O)O)[C@@H](O)[C@H]1O)c1ccccc1", "note": "[Compound 130, [(2R,3S,4R,5R)-5-[2-chloro-5-fluoro-4-[[(1R)-1-phenylethyl]-amino]pyrrolo[2,3-d]-pyrimidin-7-yl]-3,4-dihydroxy-tetrahydro-furan-2-yl]methoxy-methylphosphonic acid]", "values": [{"measurement": "IC50", "setting": "[1]", "value": "10 to 100", "unit": "nM"}, {"measurement": "IC50", "setting": "[2]", "value": "10 to 100", "unit": "nM"}]}
{"smiles": "C[C@@H](c1ccccc1)N(C)c1nc(Cl)nc2c1ccn2[C@@H]1O[C@H](COCP(=O)(O)O)[C@@H](O)[C@H]1O", "note": "[Compound 131, [(2R,3S,4R,5R)-5-[2-chloro-4-[methyl-[(1S)-1-phenylethyl]-amino]pyrrolo[2,3-d]-pyrimidin-7-yl]-3,4-dihydroxy-tetrahydro-furan-2-yl]methoxy-methylphosphonic acid]", "values": [{"measurement": "IC50", "setting": "[1]", "value": "< 10", "unit": "nM"}, {"measurement": "IC50", "setting": "[2]", "value": "< 10", "unit": "nM"}]}
{"smiles": "C[C@H](c1ccccc1)N(C)c1nc(Cl)nc2c1ccn2[C@@H]1O[C@H](COCP(=O)(O)OCOC(=O)C(C)(C)C)[C@@H](O)[C@H]1O", "note": "[Compound 132, ((((((2R,3S,4R,5R)-5-(2-chloro-4-(methyl((R)-1-phenylethyl)amino)-7H-pyrrolo[2,3-d]pyrimidin-7-yl)-3,4-dihydroxytetrahydrofuran-2-yl)methoxy)methyl)(hydroxy)phosphoryl)oxy)methyl pivalate]", "values": [{"measurement": "IC50", "setting": "[1]", "value": "10 to 100", "unit": "nM"}, {"measurement": "IC50", "setting": "[2]", "value": "< 10", "unit": "nM"}]}
{"smiles": "C[C@H](c1ccccc1)N(C)c1nc(Cl)nc2c1ccn2[C@@H]1O[C@H](COCP(=O)(OCOC(=O)C(C)(C)C)OCOC(=O)C(C)(C)C)[C@@H](O)[C@H]1O", "note": "[Compound 133, ((((((2R,3S,4R,5R)-5-(2-chloro-4-(methyl((R)-1-phenylethyl)amino)-7H-pyrrolo[2,3-d]pyrimidin-7-yl)-3,4-dihydroxytetrahydrofuran-2-yl)methoxy)methyl)phosphoryl)bis(oxy))bis(methylene) bis(2,2-dimethylpropanoate)]", "values": [{"measurement": "IC50", "setting": "[1]", "value": "> 1000", "unit": "nM"}, {"measurement": "IC50", "setting": "[2]", "value": "> 1000", "unit": "nM"}]}
{"smiles": "C[C@@H](Nc1cc(Cl)nc2c1ccn2[C@@H]1O[C@H](COCP(=O)(O)O)[C@@H](O)[C@H]1O)c1ccccc1", "note": "[Compound 134, [(2R,3S,4R,5R)-5-[6-chloro-4-[[(1R)-1-phenylethyl]amino]pyrrolo[2,3-b]pyridin-1-yl]-3,4-dihydroxy-tetrahydrofuran-2-yl]methoxymethylphosphonic acid]", "values": [{"measurement": "IC50", "setting": "[1]", "value": "10 to 100", "unit": "nM"}, {"measurement": "IC50", "setting": "[2]", "value": "< 10", "unit": "nM"}]}
{"smiles": "C[C@@H](Nc1nc(Cl)nc2c1ccn2[C@@H]1O[C@H](COCP(=O)(O)O)[C@@H](O)[C@H]1O)c1ccc(F)cn1", "note": "[Compound 135, [(2R,3S,4R,5R)-5-[2-chloro-4-[[(1R)-1-(5-fluoro-2-pyridyl)ethyl]-amino]pyrrolo[2,3-d]-pyrimidin-7-yl]-3,4-dihydroxy-tetrahydro-furan-2-yl]methoxy-methylphosphonic acid]", "values": [{"measurement": "IC50", "setting": "[1]", "value": "10 to 100", "unit": "nM"}, {"measurement": "IC50", "setting": "[2]", "value": "100 to 1000", "unit": "nM"}]}
{"smiles": "Cc1ccc([C@@H](C)Nc2nc(Cl)nc3c2ccn3[C@@H]2O[C@H](COCP(=O)(O)O)[C@@H](O)[C@H]2O)cc1", "note": "[Compound 136, [(2R,3S,4R,5R)-5-[2-chloro-4-[[(1R)-1-(p-tolyl)ethyl]amino]-pyrrolo[2,3-d]-pyrimidin-7-yl]-3,4-dihydroxy-tetrahydro-furan-2-yl]methoxy-methylphosphonic acid]", "values": [{"measurement": "IC50", "setting": "[1]", "value": "< 10", "unit": "nM"}, {"measurement": "IC50", "setting": "[2]", "value": "< 10", "unit": "nM"}]}
{"smiles": "Cc1ccc([C@@H](C)Nc2nc(C#N)nc3c2ccn3[C@@H]2O[C@H](COCP(=O)(O)O)[C@@H](O)[C@H]2O)cc1", "note": "[Compound 137, [(2R,3S,4R,5R)-5-[2-cyano-4-[[(1R)-1-(p-tolyl)ethyl]amino]-pyrrolo[2,3-d]-pyrimidin-7-yl]-3,4-dihydroxy-tetrahydro-furan-2-yl]methoxy-methylphosphonic acid]", "values": [{"measurement": "IC50", "setting": "[1]", "value": "< 10", "unit": "nM"}, {"measurement": "IC50", "setting": "[2]", "value": "10 to 100", "unit": "nM"}]}
{"smiles": "C[C@H](Nc1nc(C#N)nc2c1ccn2[C@@H]1O[C@H](COCP(=O)(O)O)[C@@H](O)[C@H]1O)c1ccc(F)cc1F", "note": "[Compound 138, [(2R,3S,4R,5R)-5-[2-cyano-4-[[(1S)-1-(2,4-difluorophenyl)ethyl]-amino]pyrrolo[2,3-d]-pyrimidin-7-yl]-3,4-dihydroxy-tetrahydro-furan-2-yl]methoxy-methylphosphonic acid]", "values": [{"measurement": "IC50", "setting": "[1]", "value": "< 10", "unit": "nM"}, {"measurement": "IC50", "setting": "[2]", "value": "< 10", "unit": "nM"}]}
{"smiles": "C[C@H](Nc1nc(Cl)nc2c1ccn2[C@@H]1O[C@H](COCP(=O)(O)O)[C@@H](O)[C@H]1O)c1ccc(F)cn1", "note": "[Compound 139, [(2R,3S,4R,5R)-5-[2-chloro-4-[[(1S)-1-(5-fluoro-2-pyridyl)-ethyl]amino]pyrrolo-[2,3-d]pyrimidin-7-yl]-3,4-dihydroxy-tetrahydrofuran-2-yl]-methoxymethylphos-phonic acid]", "values": [{"measurement": "IC50", "setting": "[1]", "value": "10 to 100", "unit": "nM"}, {"measurement": "IC50", "setting": "[2]", "value": "< 10", "unit": "nM"}]}
{"smiles": "C[C@H](Nc1nc(Cl)nc2c1ccn2[C@@H]1O[C@H](COCP(=O)(O)O)[C@@H](O)[C@H]1O)c1ccc(Cl)cc1", "note": "[Compound 140, [(2R,3S,4R,5R)-5-[2-chloro-4-[[(1S)-1-(4-chlorophenyl)ethyl]-amino]pyrrolo[2,3-d]-pyrimidin-7-yl]-3,4-dihydroxy-tetrahydro-furan-2-yl]methoxy-methylphosphonic acid]", "values": [{"measurement": "IC50", "setting": "[1]", "value": "< 10", "unit": "nM"}, {"measurement": "IC50", "setting": "[2]", "value": "< 10", "unit": "nM"}]}
